For 24 compounds, EC50 and IC50 results are on record in US10344025B2, “GLS1 inhibitors for treating disease” (Board of Regents, The University of Texas System, priority 2014, dated 2019).

Like-named read-outs stand apart in the source and are kept apart here.

One assay relates to A549 cells. Put plainly: Proliferation Assay (A549 viability, Cell Titer Fluor, 72 hours). Type of assay: cell-based. In outline: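 Cell Titer Fluor fluorescence after 72 h compound treatment (0.5% DMSO, 37 °C, 5% CO2) of A549 cells plated 24 h earlier at 1000/well. Four-parameter logistic fitting gave IC50.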
Assay [1] concerns the target purified recombinant human GAC (GLS1) (Homo sapiens (Human), UniProt O94925). Kind of assay: GLS1 Enzymatic Activity Assay (dual-coupled enzymatic assay, resorufin/Amplex UltraRed readout).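 Further: glutamate from GAC coupled via glutamate oxidase and peroxidase to resorufin, read as fluorescence (ex 530, em 590 nm) kinetically or at 20 min, four-parameter logistic IC50 fit.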 Format: biochemical.

Sequence of purified recombinant human GAC (GLS1) (O94925 other isoform, or with tags, fused parts or gaps): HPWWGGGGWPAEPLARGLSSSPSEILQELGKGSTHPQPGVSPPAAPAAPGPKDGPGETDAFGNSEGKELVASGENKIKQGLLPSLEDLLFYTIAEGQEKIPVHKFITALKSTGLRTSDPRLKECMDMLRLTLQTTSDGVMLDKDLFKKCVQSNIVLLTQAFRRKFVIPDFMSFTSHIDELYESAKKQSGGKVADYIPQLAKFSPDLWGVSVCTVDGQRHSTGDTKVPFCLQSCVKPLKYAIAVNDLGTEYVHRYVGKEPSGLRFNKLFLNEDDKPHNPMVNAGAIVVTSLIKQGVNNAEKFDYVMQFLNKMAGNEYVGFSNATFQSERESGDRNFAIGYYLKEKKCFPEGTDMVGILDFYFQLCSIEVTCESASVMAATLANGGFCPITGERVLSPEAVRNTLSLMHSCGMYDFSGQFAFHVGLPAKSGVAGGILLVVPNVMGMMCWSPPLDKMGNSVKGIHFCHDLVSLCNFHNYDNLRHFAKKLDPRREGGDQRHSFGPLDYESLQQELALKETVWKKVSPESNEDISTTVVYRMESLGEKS

In the assay on A549 cells (Homo sapiens, A549, 72 h), `CNC(=O)c1cn(CCCCn2cc(C(=O)NCc3cccc(OC(F)(F)F)c3)nn2)nn1` [Example 95, N-methyl-1-{4-[4-({[3-(trifluoromethoxy)phenyl]methyl}carbamoyl)-1H-1,2,3-triazol-1-yl]butyl}-1H-1,2,3-triazole-4-carboxamide] displayed an EC50 of 100 to 500 nM. Further, the IC50 in assay [1] fell in the range of 100 to 500 nM.
On to `O=C(NCc1ccccc1)c1cn(CCCCn2cc(C(=O)NCc3cc(C(F)(F)F)ccn3)nn2)nn1` [Example 96, 1-{4-[4-(benzylcarbamoyl)-1H-1,2,3-triazol-1-yl]butyl}-N-{[4-(trifluoromethyl)pyridin-2-yl]methyl}-1H-1,2,3-triazole-4-carboxamide], for which the EC50 in the assay with A549 cells (Homo sapiens, A549, 72 h) lay within 100 to 500 nM. The IC50 in assay [1] lay within 100 to 500 nM.
For the compound `O=C(NCc1cccc(C(F)(F)F)c1)c1cn(CCCCn2cc(C(=O)NCc3cc(C(F)(F)F)ccn3)nn2)nn1` [Example 97, 1-{4-[4-({[3-(trifluoromethyl)phenyl]methyl}carbamoyl)-1H-1,2,3-triazol-1-yl]butyl}-N-{[4-(trifluoromethyl)pyridin-2-yl]methyl}-1H-1,2,3-triazole-4-carboxamide], the EC50 with A549 cells (Homo sapiens, A549, 72 h) is under 100 nM. In addition, the IC50 in assay [1] was under 100 nM.
`C[C@@H](NC(=O)c1cn(CCCCn2cc(C(=O)NCc3cc(C(F)(F)F)ccn3)nn2)nn1)c1ccccc1` [Example 98, 1-[4-(4-{[(1R)-1-phenylethyl]carbamoyl}-1H-1,2,3-triazol-1-yl)butyl]-N-{[4-(trifluoromethyl)pyridin-2-yl]methyl}-1H-1,2,3-triazole-4-carboxamide] yielded an EC50 with A549 cells (Homo sapiens, A549, 72 h) of 500 to 5000 nM. For the same compound, the IC50 in assay [1] lay within 500 to 5000 nM.
For the compound `C[C@H](NC(=O)c1cn(CCCCn2cc(C(=O)NCc3cc(C(F)(F)F)ccn3)nn2)nn1)c1ccccc1` [Example 99, 1-[4-(4-{[(1S)-1-phenylethyl]carbamoyl}-1H-1,2,3-triazol-1-yl)butyl]-N-{[4-(trifluoromethyl)pyridin-2-yl]methyl}-1H-1,2,3-triazole-4-carboxamide], the EC50 with A549 cells (Homo sapiens, A549, 72 h) was 500 to 5000 nM. For the same compound, in assay [1], the concentration for half-maximal inhibition (IC50) lay in the range of 500 to 5000 nM.
Regarding `O=C(NCc1cc(C(F)(F)F)ccn1)c1cn(CCCCn2cc(C(=O)N[C@@H](CO)c3ccccc3)nn2)nn1` [Example 100, 1-[4-(4-{[(1R)-2-hydroxy-1-phenylethyl]carbamoyl}-1H-1,2,3-triazol-1-yl)butyl]-N-{[4-(trifluoromethyl)pyridin-2-yl]methyl}-1H-1,2,3-triazole-4-carboxamide], the EC50 with A549 cells (Homo sapiens, A549, 72 h) was over 5000 nM. Further, the IC50 in assay [1] is 500 to 5000 nM.
For `O=C(NCc1cc(C(F)(F)F)ccn1)c1cn(CCCCn2cc(C(=O)N[C@H](CO)c3ccccc3)nn2)nn1` [Example 101, 1-[4-(4-{[(1S)-2-hydroxy-1-phenylethyl]carbamoyl}-1H-1,2,3-triazol-1-yl)butyl]-N-{[4-(trifluoromethyl)pyridin-2-yl]methyl}-1H-1,2,3-triazole-4-carboxamide], in that order: 500 to 5000 nM and 500 to 5000 nM.
The matching figures for `O=C(NCc1cc(C(F)(F)F)ccn1)c1cn(CCCCn2cc(C(=O)NC[C@H]3CC4CCC3O4)nn2)nn1` (stereo partly drawn) [Example 102, 1-[4-(4-{[(2R)-7-oxabicyclo[2.2.1]heptan-2-ylmethyl]carbamoyl}-1H-1,2,3-triazol-1-yl)butyl]-N-{[4-(trifluoromethyl)pyridin-2-yl]methyl}-1H-1,2,3-triazole-4-carboxamide]: 500 to 5000 nM and 500 to 5000 nM.
For `O=C(NCc1cc(C(F)(F)F)ccn1)c1cn(CCCCn2cc(C(=O)NC[C@@H]3CC4CCC3O4)nn2)nn1` (stereo partly drawn) [Example 103, 1-[4-(4-{[(2S)-7-oxabicyclo[2.2.1]heptan-2-ylmethyl]carbamoyl}-1H-1,2,3-triazol-1-yl)butyl]-N-{[4-(trifluoromethyl)pyridin-2-yl]methyl}-1H-1,2,3-triazole-4-carboxamide], in that order: 500 to 5000 nM and 100 to 500 nM.
In the assay on A549 cells (Homo sapiens, A549, 72 h), `O=C(NCc1cc(C(F)(F)F)ccn1)c1cn(CCCCn2cc(C(=O)NC3CCCC3)nn2)nn1` [Example 104, 1-{4-[4-(cyclopentylcarbamoyl)-1H-1,2,3-triazol-1-yl]butyl}-N-{[4-(trifluoromethyl)pyridin-2-yl]methyl}-1H-1,2,3-triazole-4-carboxamide] showed an EC50 of 500 to 5000 nM. For the same compound, the concentration for half-maximal inhibition (IC50) in assay [1] was 500 to 5000 nM.
`O=C(NCc1cccc(C2CC2)c1)c1cn(CCCCn2cc(C(=O)NCc3cc(C(F)(F)F)ccn3)nn2)nn1` [Example 105, 1-[4-(4-{[(3-cyclopropylphenyl)methyl]carbamoyl}-1H-1,2,3-triazol-1-yl)butyl]-N-{[4-(trifluoromethyl)pyridin-2-yl]methyl}-1H-1,2,3-triazole-4-carboxamide] registered an EC50 in the assay with A549 cells (Homo sapiens, A549, 72 h) of under 100 nM. Moreover, the IC50 in assay [1] is under 100 nM.
In the case of `O=C(NCc1cccc(OC(F)(F)F)c1)c1cn(CCCCn2cc(C(=O)NCc3cc(C4CC4)ccn3)nn2)nn1` [Example 106, N-[(4-cyclopropylpyridin-2-yl)methyl]-1-{4-[4-({[3-(trifluoromethoxy)phenyl]methyl}carbamoyl)-1H-1,2,3-triazol-1-yl]butyl}-1H-1,2,3-triazole-4-carboxamide], in the assay with A549 cells (Homo sapiens, A549, 72 h), the EC50 was under 100 nM. Also, the IC50 in assay [1] was under 100 nM.
In turn, `O=C(NCc1cc(C(F)(F)F)ccn1)c1cn(CCCCn2cc(C(=O)NCc3cc(F)ccc3Cl)nn2)nn1` [Example 107, 1-[4-(4-{[(2-chloro-5-fluorophenyl)methyl]carbamoyl}-1H-1,2,3-triazol-1-yl)butyl]-N-{[4-(trifluoromethyl)pyridin-2-yl]methyl}-1H-1,2,3-triazole-4-carboxamide] displayed an EC50 in the assay with A549 cells (Homo sapiens, A549, 72 h) of under 100 nM. Moreover, the IC50 in assay [1] is under 100 nM.
For the compound `COc1cccc(CNC(=O)c2cn(CCCCn3cc(C(=O)NCc4cc(C(F)(F)F)ccn4)nn3)nn2)c1` [Example 108, 1-[4-(4-{[(3-methoxyphenyl)methyl]carbamoyl}-1H-1,2,3-triazol-1-yl)butyl]-N-{[4-(trifluoromethyl)pyridin-2-yl]methyl}-1H-1,2,3-triazole-4-carboxamide], the EC50 with A549 cells (Homo sapiens, A549, 72 h) was 100 to 500 nM. Further, in assay [1], the IC50 was under 100 nM.
With `CC(NC(=O)c1cn(CCCCn2cc(C(=O)NCc3cc(C(F)(F)F)ccn3)nn2)nn1)c1cccc(OC(F)(F)F)c1` (stereo not drawn) [Example 109, 1-{4-[4-({1-[3-(trifluoromethoxy)phenyl]ethyl}carbamoyl)-1H-1,2,3-triazol-1-yl]butyl}-N-{[4-(trifluoromethyl)pyridin-2-yl]methyl}-1H-1,2,3-triazole-4-carboxamide], the concentration for a half-maximal effect (EC50) in the assay with A549 cells (Homo sapiens, A549, 72 h) is 100 to 500 nM. The IC50 in assay [1] was under 100 nM.
For `CC(C)(C)OC(=O)NCc1cccc(CNC(=O)c2cn(CCCCn3cc(C(=O)NCc4cc(C(F)(F)F)ccn4)nn3)nn2)c1` [Example 110, tert-butyl N-[(3-{[(1-{4-[4-({[4-(trifluoromethyl)pyridin-2-yl]methyl}carbamoyl)-1H-1,2,3-triazol-1-yl]butyl}-1H-1,2,3-triazol-4-yl)formamido]methyl}phenyl)methyl]carbamate], in that order: under 100 nM and under 100 nM.
`O=C(NCc1cccc(Cl)c1)c1cn(CCCCn2cc(C(=O)NCc3cc(C(F)(F)F)ccn3)nn2)nn1` [Example 111, 1-[4-(4-{[(3-chlorophenyl)methyl]carbamoyl}-1H-1,2,3-triazol-1-yl)butyl]-N-{[4-(trifluoromethyl)pyridin-2-yl]methyl}-1H-1,2,3-triazole-4-carboxamide] came in with an EC50 in the assay on A549 cells (Homo sapiens, A549, 72 h) of under 100 nM. The IC50 in assay [1] is under 100 nM.
In the assay with A549 cells (Homo sapiens, A549, 72 h), `O=C(NCc1cccc(F)c1)c1cn(CCCCn2cc(C(=O)NCc3cc(C(F)(F)F)ccn3)nn2)nn1` [Example 112, 1-[4-(4-{[(3-fluorophenyl)methyl]carbamoyl}-1H-1,2,3-triazol-1-yl)butyl]-N-{[4-(trifluoromethyl)pyridin-2-yl]methyl}-1H-1,2,3-triazole-4-carboxamide] came in with an EC50 of 100 to 500 nM. Besides, the IC50 in assay [1] lay in the range of 100 to 500 nM.
As for `O=C(NCc1cccc(CO)c1)c1cn(CCCCn2cc(C(=O)NCc3cc(C(F)(F)F)ccn3)nn2)nn1` [Example 113, 1-{4-[4-({[3-(hydroxymethyl)phenyl]methyl}carbamoyl)-1H-1,2,3-triazol-1-yl]butyl}-N-{[4-(trifluoromethyl)pyridin-2-yl]methyl}-1H-1,2,3-triazole-4-carboxamide], the half-maximal effective concentration (EC50) in the assay with A549 cells (Homo sapiens, A549, 72 h) lay in the range of 500 to 5000 nM. The IC50 in assay [1] is under 100 nM.
The matching figures for `O=C(NCc1cc(C(F)(F)F)ccn1)c1cn(CCCCn2cc(C(=O)NCC3CCCCO3)nn2)nn1` (stereo not drawn) [Example 114]: 500 to 5000 nM and 500 to 5000 nM.
`O=C(NCc1cccc(OC(F)(F)F)c1)c1cn(CCCCn2cc(C(=O)NCC3CC4CCC3O4)nn2)nn1` (stereo not drawn) [Example 115, N-{7-oxabicyclo[2.2.1]heptan-2-ylmethyl}-1-{4-[4-({[3-(trifluoromethoxy)phenyl]methyl}carbamoyl)-1H-1,2,3-triazol-1-yl]butyl}-1H-1,2,3-triazole-4-carboxamide] had a half-maximal effective concentration (EC50) in the assay on A549 cells of 500 to 5000 nM. Further, the IC50 in assay [1] is 500 to 5000 nM.
`O=C(NCc1cccc(OC(F)(F)F)c1)c1cn(CCCCn2cc(C(=O)NCC3CC4CCC3O4)nn2)nn1` (stereo not drawn) [Example 116, N-{7-oxabicyclo[2.2.1]heptan-2-ylmethyl}-1-{4-[4-({[3-(trifluoromethoxy)phenyl]methyl}carbamoyl)-1H-1,2,3-triazol-1-yl]butyl}-1H-1,2,3-triazole-4-carboxamide]: the EC50 in the assay on A549 cells was in the range of 100 to 500 nM. In addition, the IC50 in assay [1] is under 100 nM.
Regarding `O=C(NCc1cccc(OC(F)(F)F)c1)c1cn(CCCCn2cc(C(=O)NCC3CCCOC3)nn2)nn1` (stereo not drawn) [Example 117, N-(oxan-3-ylmethyl)-1-{4-[4-({[3-(trifluoromethoxy)phenyl]methyl}carbamoyl)-1H-1,2,3-triazol-1-yl]butyl}-1H-1,2,3-triazole-4-carboxamide], the EC50 in the assay on A549 cells (Homo sapiens, A549, 72 h) fell in the range of 100 to 500 nM. In addition, in assay [1], the IC50 was 100 to 500 nM.
Compound `O=C(NCc1cccc(OC(F)(F)F)c1)c1cn(CCCCn2cc(C(=O)NCC3CCCCO3)nn2)nn1` (stereo not drawn) [Example 118, N-(oxan-2-ylmethyl)-1-{4-[4-({[3-(trifluoromethoxy)phenyl]methyl}carbamoyl)-1H-1,2,3-triazol-1-yl]butyl}-1H-1,2,3-triazole-4-carboxamide] had a concentration giving a half-maximal response (EC50) in the assay on A549 cells (Homo sapiens, A549, 72 h) of 100 to 500 nM. The IC50 in assay [1] was in the range of 100 to 500 nM.

What is called EC50 is the midpoint of the concentration-response curve. A high value points to a need for much substance. As usually defined, the IC50 is the midpoint of a concentration-inhibition curve.
